Source: US12564555B2, “Continuous processes for manufacturing impregnated porous carriers and for manufacturing pharmaceuticals containing impregnated porous carriers” (Rutgers, The State University of New Jersey, priority 2019, dated 2026)

Experiment: Dissolution test, rotating paddle method, DI water (Example 2)
Format: physicochemical
Conditions: 900 ml DI water, 50 rpm, 37° C., FIG. 4
Procedure: Dissolution Behavior: As part of this study, dissolution tests were performed on both pure IBU and impregnated IBU to check the effect of the impregnation process on the dissolution rate and extent of IBU. Dissolution was carried out in 900 ml of DI water at 50 rpm and 37° C. using the rotating paddle method. Samples were withdrawn at predetermined time intervals (every 3 minutes) for 60 min using a peristaltic pump attached to the dissolution device. The amount of released IBU was quantified spectrophotometrically.

With CC(C)Cc1ccc(C(C)C(=O)O)cc1 (stereo not shown) [pure crystal IBU, Ibuprofen] the “IBU released within 5 minutes” value was “less than 10%”.
